Our source for the IC50 and inhibition values is PubChem BioAssay AID624129 (Sanford-Burnham Center for Chemical Genomics, 2012).

Assay in all cases: CXCR6 receptor antagonists, dose response, cell-based, beta-arrestin, DiscoveRx, APJ panel, uHTS hits (AID 624129)
Assay [1] concerns the target Apelin receptor (Homo sapiens) (UniProt P35414). The note with it: CXCR6 beta-arrestin (DiscoveRx) antagonist cell assay, APJ.
Assay [2] addresses C-X-C chemokine receptor type 6 (Homo sapiens) (UniProt O00574). To be noted: CXCR6 beta-arrestin (DiscoveRx) antagonist cell assay; for inhibition: CXCR6, run 1, dose range 2, at 80 µM (top of the series).
Assay [3] deals with C-C chemokine receptor type 6 (Homo sapiens) (UniProt P51684). The note with it: CXCR6 beta-arrestin (DiscoveRx) antagonist cell assay.
Assay [4] deals with Beta-galactosidase (Escherichia coli) (UniProt Q8VNN2). To be noted: CXCR6 beta-arrestin (DiscoveRx) antagonist cell assay, b-galactosidase.
Sequence of Beta-galactosidase (Escherichia coli) (Q8VNN2 whole entry, looked up): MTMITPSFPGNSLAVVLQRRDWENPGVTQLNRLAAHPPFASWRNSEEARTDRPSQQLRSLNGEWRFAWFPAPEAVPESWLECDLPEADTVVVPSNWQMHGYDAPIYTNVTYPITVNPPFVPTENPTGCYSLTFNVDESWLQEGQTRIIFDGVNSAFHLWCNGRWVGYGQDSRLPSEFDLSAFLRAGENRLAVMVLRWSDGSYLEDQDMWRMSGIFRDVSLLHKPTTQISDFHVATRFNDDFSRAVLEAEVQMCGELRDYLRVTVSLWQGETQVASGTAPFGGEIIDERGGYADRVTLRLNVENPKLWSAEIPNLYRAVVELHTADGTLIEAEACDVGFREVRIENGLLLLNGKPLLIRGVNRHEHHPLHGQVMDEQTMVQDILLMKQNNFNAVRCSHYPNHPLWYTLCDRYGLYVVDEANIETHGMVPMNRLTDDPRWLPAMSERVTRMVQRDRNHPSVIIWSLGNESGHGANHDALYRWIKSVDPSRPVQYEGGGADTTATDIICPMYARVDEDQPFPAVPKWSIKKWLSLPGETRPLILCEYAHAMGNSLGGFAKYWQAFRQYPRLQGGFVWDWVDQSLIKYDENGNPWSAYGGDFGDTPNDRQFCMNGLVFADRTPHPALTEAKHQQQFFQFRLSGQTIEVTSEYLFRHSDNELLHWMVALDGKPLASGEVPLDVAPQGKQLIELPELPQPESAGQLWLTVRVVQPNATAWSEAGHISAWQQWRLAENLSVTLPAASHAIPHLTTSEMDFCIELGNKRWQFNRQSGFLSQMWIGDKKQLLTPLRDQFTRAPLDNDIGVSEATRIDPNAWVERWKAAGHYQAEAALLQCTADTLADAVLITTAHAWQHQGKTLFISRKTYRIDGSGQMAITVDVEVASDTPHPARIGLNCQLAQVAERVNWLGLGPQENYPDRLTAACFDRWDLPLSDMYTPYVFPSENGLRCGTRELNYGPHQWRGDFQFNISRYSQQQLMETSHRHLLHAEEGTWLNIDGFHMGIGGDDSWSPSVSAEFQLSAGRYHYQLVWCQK
The mark [5] stands for this setting: dose range 1, mean IC50 across replicates.
Setting [6] is: CXCR6, dose range 1, mean IC50 across replicates.
The mark [7] stands for this setting: CCR6, dose range 1, mean IC50 across replicates.

Activity calls are given as the source filed them. The rule behind the calls is not given here. Bounds are passed on as bounds.

What is called IC50 is the concentration that gives 50% inhibition. Usually inhibition stands for the drop in the measured response relative to a control, in per cent.

Sequence of C-X-C chemokine receptor type 6 (Homo sapiens) (O00574 whole entry, looked up): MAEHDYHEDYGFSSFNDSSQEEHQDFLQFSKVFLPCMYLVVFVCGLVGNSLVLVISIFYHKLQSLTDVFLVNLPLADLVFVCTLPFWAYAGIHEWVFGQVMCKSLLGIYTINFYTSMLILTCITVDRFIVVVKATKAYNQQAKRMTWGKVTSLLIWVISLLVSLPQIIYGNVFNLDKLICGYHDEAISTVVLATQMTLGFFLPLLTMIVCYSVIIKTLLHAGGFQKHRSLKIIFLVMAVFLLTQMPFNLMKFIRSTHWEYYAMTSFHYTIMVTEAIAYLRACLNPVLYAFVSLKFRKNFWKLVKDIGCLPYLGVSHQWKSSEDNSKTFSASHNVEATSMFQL

As for `C=C(CN(C)C)C(=O)c1ccc(OC2OC(COC(C)=O)C(OC(C)=O)C(OC(C)=O)C2OC(C)=O)cc1` (stereo unspecified), the IC50 in assay [1] (dose range 1) was 38.4 µM; in assay [1] (setting [5]), 38.9 µM; in assay [1] (run 2, dose range 1), 37.8 µM; in assay [1] (run 3, dose range 1), 40.5 µM; in assay [2] (setting [6]), 22.3 µM; in assay [2] (CXCR6, run 2, dose range 1), 20.9 µM. Also, the IC50 in assay [3] (CCR6, dose range 1) is 24.5 µM; in assay [3] (setting [7]), 23.2 µM; in assay [3] (CCR6, run 2, dose range 1), 21.9 µM; in assay [4] (dose range 1), > 80 µM (inactive); in assay [4] (setting [5]), greater than 80 µM. Moreover, in assay [2] (CXCR6, dose range 1), the IC50 result was “inactive”. The inhibition in assay [2] came to 135%.
For `Nc1cc(Cl)c2nonc2c1[N+](=O)[O-]`, the IC50 in assay [1] (dose range 1) is 10.8 µM; in assay [1] (setting [5]), 20.6 µM; in assay [1] (run 2, dose range 1), 13.5 µM; in assay [1] (run 3, dose range 1) it was 37.6 µM; in assay [2] (CXCR6, dose range 1), 11.5 µM; in assay [2] (setting [6]), 8.28 µM. Besides, the IC50 in assay [2] (CXCR6, run 1, dose range 2) was 7.05 µM; in assay [2] (CXCR6, run 2, dose range 1) it was 7.17 µM; in assay [2] (CXCR6, run 2, dose range 2), 7.35 µM; in assay [3] (CCR6, dose range 1), 5.46 µM; in assay [3] (setting [7]), 7.31 µM; in assay [3] (CCR6, run 2, dose range 1) it was 9.16 µM. In addition, the results for the IC50 in assay [4] (dose range 1) and in assay [4] (setting [5]) were > 80 µM (inactive) and greater than 80 µM, respectively.
On to `CC(C)(C)c1ccc(-n2nc(C#N)c(Cl)cc2=O)cc1`, for which the IC50 in assay [1] (dose range 1) was 7.12 µM; in assay [1] (setting [5]), 7.86 µM; in assay [1] (run 2, dose range 1) it was 5.54 µM; in assay [1] (run 3, dose range 1), 10.9 µM; in assay [2] (CXCR6, dose range 1), 11.5 µM; in assay [2] (setting [6]), 8.28 µM. In addition, the IC50 in assay [2] (CXCR6, run 1, dose range 2) is 5.14 µM; in assay [2] (CXCR6, run 2, dose range 1) it was 8.56 µM; in assay [2] (CXCR6, run 2, dose range 2), 7.92 µM; in assay [3] (CCR6, dose range 1), 3.8 µM; in assay [3] (setting [7]) it was 5.45 µM; in assay [3] (CCR6, run 2, dose range 1) it was 7.1 µM. The IC50 in assay [4] (dose range 1) was > 80 µM (inactive); in assay [4] (setting [5]), greater than 80 µM.
In the case of `Cc1ccc(CN2C(=O)C(Cc3ccccc3)Nc3ncnc(N4CCN(c5ccccc5)CC4)c32)cc1` (stereo unspecified), the IC50 is 3.71 µM in assay [1] (dose range 1); 4.54 µM in assay [1] (setting [5]); 5.03 µM in assay [1] (run 2, dose range 1); 4.88 µM in assay [1] (run 3, dose range 1); 3.59 µM in assay [2] (CXCR6, dose range 1); 2.93 µM in assay [2] (setting [6]). For the same compound, the IC50 in assay [2] (CXCR6, run 1, dose range 2) was 2.45 µM; in assay [2] (CXCR6, run 2, dose range 1), 2.76 µM; in assay [2] (CXCR6, run 2, dose range 2), 2.93 µM; in assay [3] (CCR6, dose range 1), 2.72 µM; in assay [3] (setting [7]), 2.47 µM; in assay [3] (CCR6, run 2, dose range 1), 2.23 µM. For the same compound, the IC50 in assay [4] (dose range 1) and in assay [4] (setting [5]) was 3.65 µM throughout.
For `COc1ccc(C)c(-n2c(=O)n(Cc3ccccc3)c(=O)c3[nH]cnc32)c1`, the IC50 is 13.5 µM in assay [1] (dose range 1); 13.1 µM in assay [1] (setting [5]); 15.7 µM in assay [1] (run 2, dose range 1); 9.95 µM in assay [1] (run 3, dose range 1); 12.3 µM in assay [2] (setting [6]); 10.9 µM in assay [2] (CXCR6, run 1, dose range 2). The IC50 is 14 µM in assay [2] (CXCR6, run 2, dose range 1); 7.56 µM in assay [2] (CXCR6, run 2, dose range 2); 8.5 µM in assay [3] (CCR6, dose range 1); 9.2 µM in assay [3] (setting [7]); 9.91 µM in assay [3] (CCR6, run 2, dose range 1); 8.42 µM in assay [4] (dose range 1). Moreover, the IC50 in assay [4] (setting [5]) is 8.42 µM. In addition, the IC50 result in assay [2] (CXCR6, dose range 1) was “inactive”.
`COc1ccc([N+](=O)[O-])c(S(=O)(=O)c2ccc(Cl)cc2)n1`: the IC50 in assay [1] (dose range 1) is 47.2 µM; in assay [1] (setting [5]), 49.4 µM; in assay [1] (run 2, dose range 1), 51.5 µM; in assay [1] (run 3, dose range 1), greater than 80 µM; in assay [2] (setting [6]) it was 51.9 µM; in assay [2] (CXCR6, run 2, dose range 1), 61.5 µM. The IC50 is 69.3 µM in assay [3] (CCR6, dose range 1); 62.5 µM in assay [3] (setting [7]); 55.8 µM in assay [3] (CCR6, run 2, dose range 1); > 80 µM (inactive) in assay [4] (dose range 1); greater than 80 µM in assay [4] (setting [5]). Besides, the IC50 result in assay [2] (CXCR6, dose range 1) is “inactive”. For the same compound, the inhibition in assay [2] worked out at 75.8%.
`Cn1c(O)c(C2=NNC(c3ccc(Cl)cc3)C2)c(=O)n(C)c1=O` (stereo unspecified): the IC50 is 9.91 µM in assay [1] (dose range 1); 13.1 µM in assay [1] (setting [5]); 20 µM in assay [1] (run 2, dose range 1); 9.47 µM in assay [1] (run 3, dose range 1); 11.7 µM in assay [2] (setting [6]); 6.31 µM in assay [2] (CXCR6, run 1, dose range 2). The IC50 is 17 µM in assay [2] (CXCR6, run 2, dose range 1); 8.11 µM in assay [2] (CXCR6, run 2, dose range 2); 11.2 µM in assay [3] (CCR6, dose range 1); 13.6 µM in assay [3] (setting [7]); 16 µM in assay [3] (CCR6, run 2, dose range 1); 26.3 µM in assay [4] (dose range 1). Further, the IC50 in assay [4] (setting [5]) is 26.3 µM. For the same compound, in assay [2] (CXCR6, dose range 1), the IC50 entry was “inactive”.
